Assay results taken from patent US20100144712A1 (priority 2007, published 2010).
Values after ≈ are worked out from the molar mass of the structure shown.

Key:
Format in all cases: cell-based
[1] = test system: Candida albican ATCC 96901; assay: In vitro antifungal activity (MIC80), Candida albican ATCC 96901; details: Candida, ATCC96901; Table 2, ATCC 96901; read-out: Minimal inhibitory concentration (MIC80)
Summary of the method: (§1)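 MIC80 is the lowest concentration that cuts growth by 80% compared with untreated cells, with alamarBlue as the growth read-out. Compounds were serially diluted in RPMI 1640 (0.25–256 […]; DMSO 2% v/v final) and added to 1.0×10^3–5.0×10^3 CFU/ml yeast suspensions, in duplicate runs.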

[2] = test system: Candida albican ATCC 90873; assay: In vitro antifungal activity (MIC80), Candida albican ATCC 90873; details: Candida, ATCC90873; Table 2, ATCC 90873; read-out: Minimal inhibitory concentration (MIC80)
Summary of the method: as §1

[3] = test system: Candida albican ATCC MYA-1003; assay: In vitro antifungal activity (MIC80), Candida albican ATCC MYA-1003; details: Candida; Table 2, MYA 1003; read-out: Minimal inhibitory concentration (MIC80)
Summary of the method: as §1

[4] = test system: Candida albican ATCC 64124; assay: In vitro antifungal activity (MIC80), Candida albican ATCC 64124; details: Candida, ATCC64124; Table 2, 64124; read-out: Minimal inhibitory concentration (MIC80)
Summary of the method: as §1

[5] = test system: Aspergillus fumigatus (ATCC 16424); assay: In vitro antifungal activity (MIC80), Aspergillus fumigatus ATCC 16424; details: Aspergillus fumigatus, ATCC16424, Table 2, ATCC 16424; read-out: Minimal inhibitory concentration (MIC80)
Procedure: (§2) In vitro antifungal activities of the inventive antifungal compounds were evaluated using test strains including Candida albican (ATCC 90873, 204276, 62342, 64124, 64550, 96901, MYA-573, MYA-574, MYA-575, MYA-576, MYA-1003) and Aspergillus fumigatus (ATCC 16424). Test samples and positive control samples were prepared by dissolving the inventive compounds and comparative compounds, i.e., amphotericin B, fluconazole and itraconazole, in DMSO, respectively, and each successively diluted with medium to obtain test and positive control solutions having test compound concentrations of 0.125 μg/ml to a maximum concentration not generating turbidity. Minimal inhibitory concentration (MIC80) of each compound was determined as the lowest concentration of the test compounds required to reduce growth by 80% relative to a control strain not treated.
(§3) 1) Test strain: Candida albican ATCC 90873, 204276, 62342, 64124, 64550, 96901, MYA-573, MYA-574, MYA-575, MYA-576, MYA-1003, and Aspergillus fumigatus ATCC 16424 were commercially obtained from The American Type Culture Collection (ATCC) and subcultured in CHEMON Co. Ltd. (amphotericin B was commercially purchased from Sigma, and fluconazole and itraconazole were prepared according to methods described in British Patent No. 2,099,818; and U.S. Pat. No. 4,267,179, respectively).
(§4) 2) Medium and culture condition: Candida albican was cultured in Sabourad Dextrose Agar, YM Agar or Potato Dextrose Agar according to ATCC information at a temperature of 37° C., 35° C., 30° C. or 25° C. Aspergillus fumigatus was cultured in Malt Extract Agar or Potato Dextrose Agar at a temperature ranging from 24 to 27° C.
(§5) 3) Preparation of test samples: the inventive compounds and comparative compounds were each diluted with DMSO to obtain 1 to 2 ml of a test sample in a concentration of 100-folds of the determining maximum concentration (256 μg/ml).
(§6) The test samples were each successively diluted with RPMI 1640 to obtain test solutions having concentrations of […] in a 12×75 mm sterilized disposable culture tube. The final concentration of DMSO was adjusted to […] (v/v).
(§7) 5) Preparation of strain solution and inoculation
(§8) Candida albican strains were each subcultured in Sabourad Dextrose Agar, YM Agar or Potato Dextrose Agar medium at 35° C. for 2˜3 days. In the case of yeasts, a single colony was taken from prominent colonies and suspended in 0.85% sterile physiological saline solution and the turbidity of the suspension was adjusted to 80˜82% at 530 nm, and then diluted 50-fold with RPMI 1640 medium to 1.0×10^3˜5.0×10^3 CFU/ml. The turbidity of fungi was adjusted to 80˜82% and the suspension was diluted 50-fold to […]. Aspergillus fumigatus strains were subcultured in Malt Extract Agar for 7˜10 days, and a single colony was taken from prominent colonies and suspended in 0.85% sterile physiological saline solution and the suspension was adjusted to 0.108 at 530 nm, and then diluted 1000-fold with RPMI 1640 medium to 0.4×10^2˜5×10^4 CFU/ml. The turbidity of fungi was adjusted to 80˜82% and the suspension was diluted 50-fold to 0.4102˜0.5104 CFU/ml.
(§9) The strain solutions thus obtained were each seeded into a sterilized 96-well microplate, 0.1 ml of each test solution were added thereto, and […] of alamarblue was treated to each well (Biosource, #DAL1100). This procedure was repeated 2 times.
(§10) Minimal inhibitory concentration (MIC80) of each compound was determined as the lowest concentration of the test compounds required to reduce growth by 80% relative to a control strain not treated.
MIC80 of each of the compounds of which antifungal activities can be confirmed by Table 2 was determined using other test strains, i.e., Aspergillus fumigatus ATCC 16424 and MYA-1163, Aspergillus terreus ATCC 28301, Aspergillus flavus ATCC MYA-1004, and Aspergillus niger ATCC 9142.

[6] = test system: Candida albican ATCC MYA-576; assay: In vitro antifungal activity (MIC80), Candida albican ATCC MYA-576; details: Candida; Table 2, MYA 576; read-out: Minimal inhibitory concentration (MIC80)
Summary of the method: as §1

[7] = test system: Candida albican ATCC MYA-574; assay: In vitro antifungal activity (MIC80), Candida albican ATCC MYA-574; details: Candida; Table 2, MYA 574; read-out: Minimal inhibitory concentration (MIC80)
Summary of the method: as §1

[8] = test system: Candida albican ATCC MYA-573; assay: In vitro antifungal activity (MIC80), Candida albican ATCC MYA-573; details: Candida; Table 2, MYA 573; read-out: Minimal inhibitory concentration (MIC80)
Summary of the method: as §1

[9] = test system: Candida albican ATCC 204276; assay: In vitro antifungal activity (MIC80), Candida albican ATCC 204276; details: ATCC204276, Table 2, 204276, read-out: Minimal inhibitory concentration (MIC80)
Procedure: as §2, §3, §4, §5, §6, §7, §8, §9, §10

[10] = test system: Candida albican ATCC MYA-575; assay: In vitro antifungal activity (MIC80), Candida albican ATCC MYA-575; details: Candida; Table 2, MYA 575; read-out: Minimal inhibitory concentration (MIC80)
Summary of the method: as §1

[11] = test system: Candida albican ATCC 64550; assay: In vitro antifungal activity (MIC80), Candida albican ATCC 64550; details: Candida, ATCC64550; Table 2, 64550; read-out: Minimal inhibitory concentration (MIC80)
Summary of the method: as §1

[12] = test system: Candida albican ATCC 62342; assay: In vitro antifungal activity (MIC80), Candida albican ATCC 62342; details: Candida, ATCC62342; Table 2, 62342; read-out: Minimal inhibitory concentration (MIC80)
Summary of the method: as §1

MIC80 [1] [µg/mL]	MIC80 [2] [µg/mL]	MIC80 [3] [µg/mL]	MIC80 [4] [µg/mL]	MIC80 [5] [µg/mL]	MIC80 [6] [µg/mL]	MIC80 [7] [µg/mL]	MIC80 [8] [µg/mL]	MIC80 [9] [µg/mL]	MIC80 [10] [µg/mL]	MIC80 [11] [µg/mL]	MIC80 [12] [µg/mL]	SMILES
4 (≈ 8.8 µM)	0.125 (≈ 0.275 µM)	128 (≈ 282 µM)	4 (≈ 8.8 µM)	0.5 (≈ 1.1 µM)	0.125 (≈ 0.275 µM)	32 (≈ 70.4 µM)	1 (≈ 2.2 µM)	0.125 (≈ 0.275 µM)	32 (≈ 70.4 µM)	1 (≈ 2.2 µM)	0.125 (≈ 0.275 µM)	C[C@@H](N1CCN(c2nc3ccccc3o2)CC1)[C@](O)(Cn1cncn1)c1ccc(F)cc1F [Example 1, (2R,3R)-3-(4-(benzooxazol-2-yl)piperazin-1-yl)-2-(2,4-difluorophenyl)-1-(1H-1,2,4-triazol-1-yl)butan-2-ol]
2 (≈ 4.25 µM)	0.125 (≈ 0.266 µM)	128 (≈ 272 µM)	4 (≈ 8.5 µM)	0.5 (≈ 1.06 µM)	0.125 (≈ 0.266 µM)	8 (≈ 17 µM)	0.25 (≈ 0.531 µM)	0.125 (≈ 0.266 µM)	8 (≈ 17 µM)	1 (≈ 2.13 µM)	0.5 (≈ 1.06 µM)	C[C@@H](N1CCN(c2nc3ccccc3s2)CC1)[C@](O)(Cn1cncn1)c1ccc(F)cc1F [Example 2, (2R,3R)-3-(4-(benzothiazol-2-yl)piperazin-1-yl)-2-(2,4-difluorophenyl)-1-(1H-1,2,4-triazol-1-yl)butan-2-ol]
4 (≈ 8.56 µM)	0.125 (≈ 0.267 µM)	> 128	16 (≈ 34.2 µM)	1 (≈ 2.14 µM)	0.125 (≈ 0.267 µM)	16 (≈ 34.2 µM)	4 (≈ 8.56 µM)	0.125 (≈ 0.267 µM)	16 (≈ 34.2 µM)	2 (≈ 4.28 µM)	8 (≈ 17.1 µM)	C[C@@H](N1CCN(c2nc3ccccc3n2C)CC1)[C@](O)(Cn1cncn1)c1ccc(F)cc1F [Example 3, (2R,3R)-2-(2,4-difluorophenyl)-3-(4-(1-methyl-1H-benzoimidazol-2-yl)piperazin-1-yl)-1-(1H-1,2,4-triazol-1-yl)butan-2-ol]
16 (≈ 38.6 µM)	0.125 (≈ 0.302 µM)	64 (≈ 154 µM)	8 (≈ 19.3 µM)	16 (≈ 38.6 µM)	0.125 (≈ 0.302 µM)	32 (≈ 77.2 µM)	0.5 (≈ 1.21 µM)	0.125 (≈ 0.302 µM)	32 (≈ 77.2 µM)	1 (≈ 2.41 µM)	1 (≈ 2.41 µM)	C[C@@H](N1CCN(c2ccccn2)CC1)[C@](O)(Cn1cncn1)c1ccc(F)cc1F [Example 16, (2R,3R)-2-(2,4-difluorophenyl)-3-(4-(pyridin-2-yl)piperazin-1-yl)-1-(1H-1,2,4-triazol-1-yl)butan-2-ol]
8 (≈ 18.2 µM)	0.125 (≈ 0.284 µM)	32 (≈ 72.8 µM)	16 (≈ 36.4 µM)	8 (≈ 18.2 µM)	0.125 (≈ 0.284 µM)	64 (≈ 146 µM)	0.25 (≈ 0.569 µM)	0.125 (≈ 0.284 µM)	64 (≈ 146 µM)	1 (≈ 2.28 µM)	2 (≈ 4.55 µM)	C[C@@H](N1CCN(c2ccc(C#N)nc2)CC1)[C@](O)(Cn1cncn1)c1ccc(F)cc1F [Example 17, 5-(4-((2R,3R)-3-(2,4-difluorophenyl)-3-hydroxy-4-(1H-1,2,4-triazol-1-yl)butan-2-yl)piperazin-1-yl)picolinonitrile]
8 (≈ 19.3 µM)	0.125 (≈ 0.301 µM)	> 128	16 (≈ 38.5 µM)	0.125 (≈ 0.301 µM)	0.125 (≈ 0.301 µM)	> 128	1 (≈ 2.41 µM)	0.125 (≈ 0.301 µM)	> 128	2 (≈ 4.81 µM)	4 (≈ 9.63 µM)	C[C@@H](N1CCN(c2ncccn2)CC1)[C@](O)(Cn1cncn1)c1ccc(F)cc1F [Example 18, (2R,3R)-2-(2,4-difluorophenyl)-3-(4-(pyrimidin-2-yl)piperazin-1-yl)-1-(1H-1,2,4-triazol-1-yl)butan-2-ol]
32 (≈ 74.7 µM)	0.125 (≈ 0.292 µM)	> 128	64 (≈ 149 µM)	1 (≈ 2.33 µM)	0.125 (≈ 0.292 µM)	64 (≈ 149 µM)	2 (≈ 4.67 µM)	0.125 (≈ 0.292 µM)	64 (≈ 149 µM)	16 (≈ 37.3 µM)		C[C@@H](N1CCN(Cc2ccccn2)CC1)[C@](O)(Cn1cncn1)c1ccc(F)cc1F [Example 41, (2R,3R)-2-(2,4-difluorophenyl)-3-(4-((pyridin-2-yl)methyl)piperazin-1-yl)-1-(1H-1,2,4-triazol-1-yl)butan-2-ol]
> 128	0.25 (≈ 0.446 µM)	> 128		1 (≈ 1.79 µM)			4 (≈ 7.14 µM)					C[C@@H](N1CCN(C(=O)c2nc(-c3ccc(Cl)cc3)ns2)CC1)[C@](O)(Cn1cncn1)c1ccc(F)cc1F [Example 51, (3-(4-chlorophenyl)-1,2,4-thiadiazol-5-yl)(4-((2R,3R)-3-(2,4-difluorophenyl)-3-hydroxy-4-(1H-1,2,4-triazol-1-yl)butan-2-yl)piperazin-1-yl)methanone]
> 128	0.25 (≈ 0.463 µM)	> 128		1 (≈ 1.85 µM)			> 128					Cc1ccc(-c2nsc(C(=O)N3CCN([C@H](C)[C@](O)(Cn4cncn4)c4ccc(F)cc4F)CC3)n2)cc1 [Example 53, (4-((2R,3R)-3-(2,4-difluorophenyl)-3-hydroxy-4-(1H-1,2,4-triazol-1-yl)butan-2-yl)piperazin-1-yl)(3-p-tolyl-1,2,4-thiadiazol-5-yl)methanone]
> 128	0.125 (≈ 0.225 µM)	> 128		0.5 (≈ 0.9 µM)			4 (≈ 7.2 µM)					COc1ccc(-c2nsc(C(=O)N3CCN([C@H](C)[C@](O)(Cn4cncn4)c4ccc(F)cc4F)CC3)n2)cc1 [Example 54, (4-((2R,3R)-3-(2,4-difluorophenyl)-3-hydroxy-4-(1H-1,2,4-triazol-1-yl)butan-2-yl)piperazin-1-yl)(3-(4-methoxyphenyl)-1,2,4-thiadiazol-5-yl)methanone]
